From paper PMC9369311, “Examination of Intracellular GPCR-Mediated Signaling with High Temporal Resolution” (International Journal of Molecular Sciences, 2022)
“Also recorded” adds a separate entry of the source.

Biological target: T1, CNGA2 channel (Bos taurus, UniProt Q03041, T537M)
T1 construct: host or cells: HEK293 flpIn cells (Invitrogen #750-07)
T1 sequence (Q03041 1-663 T537M): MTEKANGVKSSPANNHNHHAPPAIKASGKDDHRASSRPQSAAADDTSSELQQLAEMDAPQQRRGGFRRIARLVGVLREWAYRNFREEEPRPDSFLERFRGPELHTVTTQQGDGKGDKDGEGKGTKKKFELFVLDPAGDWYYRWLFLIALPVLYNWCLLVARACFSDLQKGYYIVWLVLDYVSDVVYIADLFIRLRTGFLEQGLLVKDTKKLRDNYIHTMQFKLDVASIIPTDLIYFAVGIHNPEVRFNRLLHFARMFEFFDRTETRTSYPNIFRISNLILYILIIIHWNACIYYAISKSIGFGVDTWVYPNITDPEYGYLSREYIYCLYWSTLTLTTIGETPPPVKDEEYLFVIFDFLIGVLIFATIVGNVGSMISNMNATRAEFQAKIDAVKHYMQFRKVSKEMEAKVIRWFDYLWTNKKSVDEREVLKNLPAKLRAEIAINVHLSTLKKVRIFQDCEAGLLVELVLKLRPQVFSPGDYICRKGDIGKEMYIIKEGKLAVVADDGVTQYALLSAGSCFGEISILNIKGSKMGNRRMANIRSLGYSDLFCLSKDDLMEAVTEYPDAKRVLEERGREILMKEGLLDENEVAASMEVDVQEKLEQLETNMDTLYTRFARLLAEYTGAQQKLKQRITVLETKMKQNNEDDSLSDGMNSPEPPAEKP
Assay: Stopped-flow flash photolysis of caged cAMP in Fluo-4-loaded flpTM-DmOctβ1 cells
Format: cell-based, bovine
Details: for cAMP released by photolysis: based on quantum yield
Description: Neutral density filters that regulate the transmission of light (5%, 25%, 50%, 80%, 100%) were installed, allowing application of different light intensities.
As an integral component of the flpTM-DmOctβ1 cell line, the cAMP-sensitive CNG channel (flpTM; see [32]) enables the detection of cellular cAMP dynamics via mediating cAMP-dependent opening of the channel pore and resulting in Ca^2+ influx. […] A (7-diethylaminocoumarin-4-yl)methyl (DEACM)-modified cAMP was used. The FlpTM-DmOctβ1 cells were loaded with Fluo-4 and DEACM-cAMP. For the stopped-flow measurements, the cells were mixed with ES in the cuvette and after 2 s, a UV-flash was triggered for 10 ms to release cAMP. The fluorescence signals were monitored for 12 s. The time point when triggering the light flash was defined as t = 0. Different concentrations of DEACM-cAMP were used (10 µM, 30 µM, 50 µM, and 100 µM) for loading cells. […] In successive experiments, different light intensities were applied (5%, 25%, 50%, 80%, 100%). The experiments were performed in the presence of 100 µM IBMX to avoid fluctuations in cAMP due to cell-endogenous phosphodiesterases.
For the photolysis of the caged compounds with ultraviolet (UV)-light, a Xe-flash lamp (JML-C2; Rapp Opto Electronics, Wedel, Germany) was coupled to the cuvette via an UV-light permeable light guide (Schott). A UV-2 interference filter was placed between the Xe-flash lamp and light guide to select for the UV-light needed for the photolysis of the caged compounds. Additionally, it prevents the photomultiplier from being hit by light that is able to pass the emission filter. The maximal energy of one light flash at the surface of the cuvette was 107 mJ·cm^−2 (set to C2 and 200 V). Neutral density (ND) filters (AHF Analysentechnik, Tübingen, Germany) could be installed between the interference filter and the Xe-flash lamp to regulate the intensity of the UV-light applied to the cuvette. To maximize the detection of the emission light, a test solution containing 50 nM of fluorescein in ES was added to the cuvette and the light guide was fixed to the Xe/Hg-lamp at a position where the photomultiplier detected maximal intensity.

time from light flash to rise in fluorescence (Ca2+ signal) (cells loaded with 10 µM DEACM-cAMP, light intensities of 80% and 100%, 10 ms flash, 100 µM IBMX): approximately 60 ms
cAMP released by photolysis (from 10 µM DEACM-cAMP): approximately 2 µM
cAMP released by photolysis (from 30 µM DEACM-cAMP): ~6 µM
Structure (SMILES): CCN(CC)c1ccc2c(COP3(=O)OC[C@H]4O[C@@H](n5cnc6c(N)ncnc65)[C@H](O)[C@@H]4O3)cc(=O)oc2c1 (stereo partly shown) [DEACM-cAMP]
onset of Ca2+ signals after light flash (cells loaded with 30 µM DEACM-cAMP, 10 ms flash, 100 µM IBMX): immediately after the light flash; also recorded: immediately after photolysis
